Data reported in patent publication US11051515B2, “3-acyl-benzamides and their use as herbicides” (Bayer Aktiengesellschaft, priority 2017, dated 2021).

Assays:
VERPE [1] = assay: Pre-emergence action against VERPE; type: in vivo, Veronica persica; details: Dosage 320 g/ha, pre-emergence
Excerpt: (§1) Seeds of monocotyledonous and dicotyledonous weed plants and crop plants are laid out in sandy loam soil in wood-fiber pots and covered with soil. The compounds of the invention, formulated in the form of wettable powders (WP) or as emulsion concentrates (EC), are then applied to the surface of the covering soil in the form of an aqueous suspension or emulsion at a water application rate equating to […], with addition of 0.2% wetting agent. After the treatment, the pots are placed in a greenhouse and kept under good growth conditions for the trial plants. The damage to the test plants is scored visually after a test period of 3 weeks by comparison with untreated controls (herbicidal activity in percent (%): 100% activity=the plants have died, 0% activity=like control plants).

AMARE [2] = assay: Post-emergence action against AMARE; type: in vivo, Amaranthus retroflexus; details: post-emergence, dosage 80 g/ha, visual assessment about 3 weeks after treatment vs untreated controls; for pest or weed control at 80 g/ha: Amaranthus retroflexus, 504 h, read-out: Post-emergence action against AMARE (herbicidal action in percent)
Description: (§2) Seeds of monocotyledonous and dicotyledonous weed and crop plants are laid out in sandy loam soil in wood-fiber pots, covered with soil and cultivated in a greenhouse under good growth conditions. 2 to 3 weeks after sowing, the test plants are treated at the one-leaf stage. The compounds of the invention, formulated in the form of wettable powders (WP) or as emulsion concentrates (EC), are then sprayed onto the green parts of the plants in the form of an aqueous suspension or emulsion at a water application rate equating to […], with addition of 0.2% wetting agent. After the test plants have been left to stand in the greenhouse under optimal growth conditions for about 3 weeks, the action of the preparations is assessed visually in comparison to untreated controls (herbicidal action in percent (%): 100% activity=the plants have died, 0% activity=like control plants). […] At the same time, inventive compounds leave Gramineae crops such as barley, wheat, rye, millet/Sorghum, corn or rice virtually undamaged when applied post-emergence, even at high active ingredient dosages. In addition, some substances are also harmless to dicotyledonous crops such as soya, cotton, oilseed rape, sugar beet or potatoes. Some of the compounds according to the invention have high selectivity and are therefore suitable for controlling unwanted vegetation in agricultural crops by the post-emergence method. The data of Tables B18 to B34 below illustrate, in an exemplary manner, the […] herbicidal action of the compounds according to the invention, the herbicidal activity being stated in percent.

ABUTH [3] = assay: Post-emergence action against ABUTH; type: in vivo, Abutilon theophrasti; details: post-emergence, dosage 80 g/ha, visual assessment about 3 weeks after treatment vs untreated controls
Description: as §2

VERPE [4] = assay: Post-emergence action against VERPE; type: in vivo, Veronica persica; details: dosage 80 g/ha
Description: as §2

STEME [5] = assay: Post-emergence action against STEME; type: in vivo, Stellaria media; details: post-emergence, dosage 80 g/ha
Description: as §2

MATIN [6] = assay: Post-emergence action against MATIN; type: in vivo, Matricaria inodora; details: post-emergence, dosage 80 g/ha, visual assessment about 3 weeks after treatment vs untreated controls
Description: as §2

AMARE [7] = assay: Pre-emergence action against AMARE; type: in vivo, Amaranthus retroflexus; details: pre-emergence, dosage 320 g/ha, scored visually after 3 weeks vs untreated controls
Excerpt: as §1

STEME [8] = assay: Pre-emergence action against STEME; type: in vivo, Stellaria media; details: Dosage 320 g/ha, pre-emergence
Excerpt: as §1

VIOTR [9] = assay: Post-emergence action against VIOTR; type: in vivo, Viola tricolor; details: post-emergence, dosage 80 g/ha
Description: as §2

VIOTR [10] = assay: Pre-emergence action against VIOTR; type: in vivo, Viola tricolor; details: Dosage 320 g/ha, pre-emergence
Excerpt: as §1

MATIN [11] = assay: Pre-emergence action against MATIN; type: in vivo, Matricaria inodora; details: Dosage 320 g/ha, pre-emergence
Excerpt: as §1

PHBPU = assay: Post-emergence action against PHBPU; type: in vivo, Pharbitis purpurea; details: post-emergence, dosage 80 g/ha
Description: as §2

ABUTH [12] = assay: Pre-emergence action against ABUTH; type: in vivo, Abutilon theophrasti; details: pre-emergence, dosage 320 g/ha, scored visually after 3 weeks vs untreated controls
Excerpt: as §1

ALOMY = assay: Pre-emergence action against ALOMY; type: in vivo, Alopecurus myosuroides; details: dosage 320 g/ha; pre-emergence; scored visually after 3 weeks vs untreated controls; 100% = plants have died, 0% = like control plants
Excerpt: as §1

ECHCG [13] = assay: Post-emergence action against ECHCG; type: in vivo, Echinochloa crus-galli; details: post-emergence, dosage 80 g/ha, visual assessment about 3 weeks after treatment vs untreated controls
Description: as §2

ECHCG [14] = assay: Pre-emergence action against ECHCG; type: in vivo, Echinochloa crus-galli; details: pre-emergence, dosage 320 g/ha, scored visually after 3 weeks vs untreated controls
Excerpt: as §1

SETVI = assay: Pre-emergence action against SETVI; type: in vivo, Setaria viridis; details: pre-emergence, dosage 320 g/ha, scored visually after 3 weeks vs untreated controls
Excerpt: as §1

Row | Compound | Post-emergence action against STEME (STEME [5]) | Post-emergence action against MATIN (herbicidal action in percent) (MATIN [6]) | Pre-emergence action against VERPE (VERPE [1]) | Post-emergence action against AMARE (herbicidal action in percent) (AMARE [2]) | Pre-emergence action against AMARE (herbicidal activity) (AMARE [7]) | Pre-emergence action against STEME (STEME [8]) | Post-emergence action against VIOTR (VIOTR [9]) | Pre-emergence action against VIOTR (VIOTR [10]) | Pre-emergence action against MATIN (MATIN [11]) | Post-emergence action against PHBPU (PHBPU) | Pre-emergence action against ABUTH (herbicidal activity) (ABUTH [12]) | Post-emergence action against ABUTH (herbicidal action in percent) (ABUTH [3]) | further results
1 | CC(=O)c1c(C(F)(F)F)ccc(C(=O)Nc2nnnn2C)c1C [1-14] | – | – | – | – | – | – | – | – | – | – | – | – | pest or weed control at 320 g/ha (VERPE [1]; Veronica persica, 504 h): 90%; pest or weed control at 80 g/ha (AMARE [2]): 80%; pest or weed control at 80 g/ha (ABUTH [3]; Abutilon theophrasti, 504 h, read-out: Post-emergence action against ABUTH (herbicidal action in percent)): 90%; pest or weed control at 80 g/ha (VERPE [4]; Veronica persica, 504 h): 80%
2 | Cn1nnnc1NC(=O)c1ccc(Cl)c(C(=O)C2CCCC2)c1Cl [1-281] | 100 | 80% | 100% | 90% | 90% | 80% | 100 | 100% | 90% | 90 | – | – | Post-emergence action against VERPE (VERPE [4]): 80
3 | Cn1nnnc1NC(=O)c1ccc(Cl)c(C(=O)c2cccs2)c1Cl [1-282] | – | – | – | – | – | – | – | – | – | – | – | – | pest or weed control at 320 g/ha (ABUTH [12]; Abutilon theophrasti, 504 h, read-out: Pre-emergence action against ABUTH (herbicidal activity)): 90%; pest or weed control at 80 g/ha (STEME [5]; Stellaria media, 504 h): 80%; pest or weed control at 80 g/ha (AMARE [2]): 80%; pest or weed control at 320 g/ha (AMARE [7]; Amaranthus retroflexus, 504 h, read-out: Pre-emergence action against AMARE (herbicidal activity)): 80%; pest or weed control at 320 g/ha (MATIN [11]; Tripleurospermum inodorum, 504 h): 80%
4 | COc1ccc(C(=O)c2c(Cl)ccc(C(=O)Nc3nnnn3C)c2Cl)cc1 [1-283] | 80 | – | – | – | – | – | – | – | – | – | 90% | – | –
5 | CCn1nnnc1NC(=O)c1ccc(C(F)(F)F)c(C(=O)C2CCCC2)c1Cl [2-154] | 90 | – | – | 100% | – | – | – | – | – | 90 | – | 90% | –
6 | CCn1nnnc1NC(=O)c1ccc(C(F)(F)F)c(C(=O)C(F)(F)F)c1Cl [2-162] | 100 | – | – | 90% | 90% | 100% | 100 | 100% | – | 100 | 100% | – | –
7 | CCn1nnnc1NC(=O)c1ccc(Cl)c(C(=O)C2CCCC2)c1Cl [2-281] | 100 | 80% | 90% | 90% | 90% | 90% | 90 | 100% | 90% | 100 | – | – | Post-emergence action against VERPE (VERPE [4]): 80
8 | CCn1nnnc1NC(=O)c1ccc(Cl)c(C(=O)c2cccs2)c1Cl [2-282] | – | – | – | – | 80% | 80% | – | – | – | – | 100% | – | –
9 | CCn1nnnc1NC(=O)c1ccc(Cl)c(C(=O)c2ccc(OC)cc2)c1Cl [2-283] | – | – | – | – | – | 90% | – | – | – | – | – | 80% | –
10 | CCCn1nnnc1NC(=O)c1ccc(C)c(C(=O)CC)c1Cl [3-135] | 100 | 80% | 80% | 90% | 90% | 90% | – | – | 90% | 90 | – | – | Pre-emergence action against ALOMY (herbicidal activity in percent) (ALOMY): 80%; Post-emergence action against ECHCG (herbicidal action in percent) (ECHCG [13]): 80%; Pre-emergence action against ECHCG (herbicidal activity) (ECHCG [14]): 90%
11 | CCCn1nnnc1NC(=O)c1ccc(C(F)(F)F)c(C(=O)C(C)C)c1Cl [3-140] | 90 | 90% | 100% | 80% | 100% | 100% | 100 | 100% | 100% | 90 | 100% | 100% | Pre-emergence action against ALOMY (herbicidal activity in percent) (ALOMY): 90%; Post-emergence action against ECHCG (herbicidal action in percent) (ECHCG [13]): 100%; SETVI (Table B8, pre-emergence herbicidal activity) (SETVI): 90%; Pre-emergence action against ECHCG (herbicidal activity) (ECHCG [14]): 90%
12 | CCCn1nnnc1NC(=O)c1ccc(C(F)(F)F)c(C(=O)C2CCCCC2)c1Cl [3-155] | 80 | – | – | 90% | 90% | 100% | – | – | – | – | 100% | 80% | –
13 | CCCn1nnnc1NC(=O)c1ccc(C(F)(F)F)c(C(=O)c2cc(F)cc(F)c2)c1Cl [3-282] | – | – | – | 80% | – | – | – | 90% | – | 90 | – | 80% | –
